In experiment [1] the target is T1, human 11β-HSD2 (Homo sapiens, UniProt P80365).
T1 construct: host or cells: CHO cells
T1 sequence (P80365 1-405): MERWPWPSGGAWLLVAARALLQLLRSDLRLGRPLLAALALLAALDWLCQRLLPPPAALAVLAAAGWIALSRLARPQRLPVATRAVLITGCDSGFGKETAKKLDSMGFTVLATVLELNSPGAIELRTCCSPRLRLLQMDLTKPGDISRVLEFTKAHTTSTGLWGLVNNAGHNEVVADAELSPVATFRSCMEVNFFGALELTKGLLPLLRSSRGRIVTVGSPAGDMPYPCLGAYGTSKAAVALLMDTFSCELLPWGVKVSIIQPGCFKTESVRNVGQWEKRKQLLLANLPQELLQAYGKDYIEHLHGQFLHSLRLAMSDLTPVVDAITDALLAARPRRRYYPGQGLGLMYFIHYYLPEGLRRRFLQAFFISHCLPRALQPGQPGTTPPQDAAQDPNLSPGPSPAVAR
Nature of the experiment: 11b-HSD2 inhibition test in transfected CHO cells. To be noted: at a concentration of 10 uM; CHO cells expressing human 11β-HSD2; read-out: 11b-HSD2 inhibitory effect. Format: cell-based. The procedure:
CHO cells were plated on a 96 well plate with RPMI (Wellgene) medium (phenol red free) containing 100 μl of 10% FBS, 100 ug/ml of penicillin and 100 ug/ml of streptomycin (2×10^4 cells/well). CHO cells were transfected with plasmid (Origene, SC122552) (pCMV6-XL5 vector) expressing human 11β-HSD2 by using FuGENE6 reagent (Promega, E2311). 24 hours after transfection, the transfected cells were added with 50 nM of cortisol (Sigma) in the presence or absence of the compound at various concentrations. On the following day (24 hours later), the supernatant liquid was obtained, and through HTRF (Cisbio, 62CO2PEB) analysis, a competitive amount of cortisol was measured.

The target of experiment [2] is T2, mouse 11β-HSD1 (Mus musculus, UniProt P50172).
T2 construct: 100 ug/ml human/mouse liver microsomes; from tissue; host or cells: mouse liver microsomes
Nature of the experiment: Enzyme activity analysis on mouse 11β-HSD1 (HTRF cortisol, liver microsomes). To be noted: second value of cell. It counts as biochemical. A digest of the protocol:
(§1)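 Cortisol generated by mouse or human liver microsome 11β-HSD1 during 2 h at 37° C., measured by HTRF competition (cryptate anti-cortisol antibody, d2-cortisol, 2 h room temperature) against a cortisol standard curve. IC50 from percent inhibition versus no-compound control.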
(In general: Time-resolved FRET reads energy transfer from a long-lived donor to a nearby acceptor.)

For experiment [3], the target named is T3, human 11β-HSD1 (Homo sapiens, UniProt P28845).
T3 construct: 100 ug/ml human/mouse liver microsomes; from tissue; host or cells: human liver microsomes
Nature of the experiment: Enzyme activity analysis on human 11β-HSD1 (HTRF cortisol, liver microsomes). Format: biochemical. To be noted: first value of cell. A digest of the protocol:
as §1

Experiment [4] has as its target T4, glucocorticoid receptor (Homo sapiens, UniProt P04150).
T4 construct: 4× GR-LBD up to 4 nM, and 4× Tb anti-GST Antibody up to 8 nM; purchased Invitrogen PV6040
T4 sequence (P04150 524-758 limits assumed): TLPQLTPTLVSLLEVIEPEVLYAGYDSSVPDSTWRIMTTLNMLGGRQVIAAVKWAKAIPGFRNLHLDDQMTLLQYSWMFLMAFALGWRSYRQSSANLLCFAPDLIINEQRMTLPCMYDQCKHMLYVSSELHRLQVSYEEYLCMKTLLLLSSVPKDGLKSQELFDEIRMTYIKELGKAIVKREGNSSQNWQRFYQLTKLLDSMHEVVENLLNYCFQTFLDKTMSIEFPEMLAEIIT
The experiment can be described thus: Competitive binding of glucocorticoid receptor (LanthaScreen TR-FRET). To be noted: final concentration 10 uM. On the procedure:
In order to confirm the selective inhibitory ability of 11β-HSD1 inhibitor, competitive binding between 11β-HSD1 inhibitor and glucocorticoid ligand was tested by using LanthaScreen TR-FRET Glucocorticoid Receptor Competitive Binding Assay (Invitrogen, PV6040). The test material was dissolved in DMSO (Sigma, 276855) up to a 100× concentration of its final concentration (10 uM), and then Complete Nuclear Receptor Buffer F (1× stabilizing peptide, 5 mM DTT, Nuclear Receptor Buffer F) was used to dilute the test material up to a concentration of 2×, 4× Fluormone™ GS1 Green up to 20 nM, 4× GR-LBD up to 4 nM, and 4× Tb anti-GST Antibody up to 8 nM.
In order to obtain 60 μl of a final product through a reaction, on a 96-well plate, 2× test material 30 μl, 4× Fluormone™ GS1 Green 15 μl, and 4× GR-LBD/Tb anti-GST Antibody 15 μl were mixed, and reacted for 1 hour. In a positive control group, instead of the test material, Dexamethasone (Sigma, D1756), known as a ligand for glucocorticoid receptor, was used, and in a maximum active control group, DMSO was used, instead of the test material. In a negative control group, instead of the test material, DMSO was used, instead of Fluormone™ GS1 Green, Complete Nuclear Receptor Buffer F was used. On a 384-well white plate, 20 μl each was plated. By using Time-Resolved program in Flexstation3, a fluorescence value was read after excitation ([…]), emission (515 nM/486 nM), Delay time (100 μs), and Integration time (1500 μs) were programmed. By using the obtained value, a value of 515 nM/486 nM was calculated, from which the value in the negative control group was subtracted. The degree of binding of the test material to glucocorticoid receptor of was calculated by the active value of the test material with respect to the active value (100%) in the maximum active control group.

T3 sequence (P28845 whole entry): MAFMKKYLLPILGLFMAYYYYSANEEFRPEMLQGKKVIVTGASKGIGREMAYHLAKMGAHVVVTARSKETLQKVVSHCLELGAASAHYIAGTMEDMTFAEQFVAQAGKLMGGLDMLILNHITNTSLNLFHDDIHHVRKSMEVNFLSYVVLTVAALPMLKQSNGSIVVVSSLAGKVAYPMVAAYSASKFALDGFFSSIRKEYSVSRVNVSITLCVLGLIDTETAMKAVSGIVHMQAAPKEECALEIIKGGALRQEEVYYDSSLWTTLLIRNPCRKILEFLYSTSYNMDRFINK
T2 sequence (P50172 whole entry): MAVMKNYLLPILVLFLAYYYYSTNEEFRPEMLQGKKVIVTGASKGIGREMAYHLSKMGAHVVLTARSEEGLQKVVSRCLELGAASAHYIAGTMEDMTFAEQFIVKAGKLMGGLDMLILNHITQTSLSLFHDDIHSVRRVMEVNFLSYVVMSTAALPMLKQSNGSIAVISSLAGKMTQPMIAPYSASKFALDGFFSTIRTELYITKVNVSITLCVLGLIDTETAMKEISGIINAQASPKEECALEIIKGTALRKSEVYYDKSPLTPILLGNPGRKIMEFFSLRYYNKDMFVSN

Consider `Cc1ccc(S(=O)(=O)NC(C)(C)C(=O)NC2C3CC4CC2CC(C(N)=O)(C4)C3)cc1F` (stereo not drawn) [compound 92, N-4-(2-(3-fluoro-4-methylphenylsulfonamido)-2-methylpropanamido)adamantane-1-carboxyamide], for which the inhibition at 10 µM in experiment [1] is at most 40%. Besides, the half-inhibitory concentration (IC50) in experiment [2] was 0.077 µM; in experiment [3] it was 0.032 µM. Also, the “binding to glucocorticoid receptor” value in experiment [4] is given as “did not bind to glucocorticoid receptor”.
Regarding `CC(C)(NS(=O)(=O)c1c(Cl)cccc1Cl)C(=O)NC1C2CC3CC1CC(C(N)=O)(C3)C2` (stereo not drawn) [compound 121], the inhibition at 10 µM in experiment [1] was at most 40%. The IC50 in experiment [2] stood at 0.004 µM; in experiment [3], 0.009 µM.
Consider `CC(C)(NS(=O)(=O)c1ccccc1[N+](=O)[O-])C(=O)NC1C2CC3CC1CC(C(N)=O)(C3)C2` (stereo not drawn) [compound 106, N-4-(2-(2-nitrophenylsulfonamido)-2-methylpropanamido)adamantane-1-carboxyamide], for which the inhibition at 10 µM in experiment [1] is at most 40%. The figures for the half-inhibitory concentration (IC50) in experiment [2] and in experiment [3] were 0.04 µM and 0.041 µM, respectively. Further, the “binding to glucocorticoid receptor” value in experiment [4] was “did not bind to glucocorticoid receptor”.
For `CC(C)(NS(=O)(=O)c1ccccc1C(F)(F)F)C(=O)NC1C2CC3CC1CC(C(N)=O)(C3)C2` (stereo not drawn) [compound 108, N-4-(2-(2-trifluoromethylphenylsulfonamido)-2-methylpropanamido)adamantane-1-carboxyamide] the same measures were at most 40%, 0.029 µM, 0.011 µM and “did not bind to glucocorticoid receptor”.
As to `NC(=O)C12CC3CC(C1)C(NC(=O)C1(NS(=O)(=O)c4cccc5cccnc45)CCC1)C(C3)C2` (stereo not drawn) [compound 146, N-4-(1-(quinoline-8-sulfonamido)cyclobutanecarboxyamido)adamantane-1-carboxyamide], the inhibition at 10 µM in experiment [1] is at most 40%. Also, the IC50 came to 0.02 µM in experiment [2] and 0.029 µM in experiment [3].
For `CC(C)(NS(=O)(=O)c1cccc2cccnc12)C(=O)NC1C2CC3CC1CC(C(N)=O)(C3)C2` (stereo not drawn) [compound 105, N-4-(2-(quinoline-8-sulfonamido)-2-methylpropanamido)adamantane-1-carboxyamide] the same measures were at most 40%, 0.006 µM and 0.023 µM.

What is called IC50 is the point on the concentration scale where inhibition reaches its midpoint. Read a low IC50 as greater potency.

The record behind these values is patent US9073830B2 (Hyundai Pharm Co., Ltd., priority 2011, dated 2015).
